We go through 32 compounds from patent US10730889B2, “Amido spirocyclic amide and sulfonamide derivatives” (Forma TM, LLC, priority 2012, dated 2020).

The subject of one test is A2780 cells. Put plainly: In-vitro cell proliferation assay (SRB, 72 hours). Format: cell-based. The conditions noted are these: A2780 cells, 72 hours, SRB; read-out: Cell Proliferation (IC50).
Protocol: Assay 2: In-Vitro Cell Proliferation Assay
Assay Method. […] The compounds were then further diluted to 10× final concentration in culture media, whereupon 20 μL of each dilution was added to the plated cells with controls (e.g. DMSO and blank) to make a final volume of 200 μL. The final DMSO concentration in each well was 0.1%. The plates were then incubated for 72 hours at 37° C. in a 5% CO2 incubator. The number of viable cells was then assessed using sulforhodamine B (SRB) assay. Cells were fixed at 4° C. for 1 hour with the addition of 50 μL 30% trichloroacetic acid (TCA) to make a final concentration of 6% TCA. The plates were washed four times with H2O and allowed to dry for at least 1 hour, whereupon 100 μL of a 4% SRB in 1% acetic acid solution was added to each well and incubated at room temperature for at least 30 min. The plates were then washed three times with 1% acetic acid, dried, and treated with 100 μL of 10 mM Tris-Base solution. The plates were then read in a microplate reader at an absorbance of 570 nm. Background was generated on a separate plate with media only.
Determination of IC50 Values. First, the signals from the background plate were averaged, then the background was subtracted from the test plates.
`CC1(C)CC1C(=O)N1CCC2(CC1)CC2CNC(=O)c1cc2cnccc2[nH]1` (centres unmarked) [Example 348, N-[[6-(2,2-dimethylcyclopropanecarbonyl)-6-azaspiro[2.5]octan-2-yl]methyl]-1H-pyrrolo[3,2-c]pyridine-2-carboxamide]: the IC50 was 42.6 nM.
Consider `CC1(C)CC1C(=O)N1CCC2(CC1)CC2CNC(=O)c1cc2cnccc2[nH]1` (centres unmarked) [Example 364, N-[[6-(2,2-dimethylcyclopropanecarbonyl)-6-azaspiro[2.5]octan-2-yl]methyl]-1H-pyrrolo[3,2-c]pyridine-2-carboxamide], for which the IC50 was found to be 110 nM.

The same test, now with this note: Homo sapiens, A2780, 72 h, A2780 cells, 72 hours, SRB; read-out: Cell Proliferation (IC50).
With `O=C(NCC1CC12CCN(C(=O)c1cnoc1C1CC1)CC2)c1cc2ccncc2o1` (centres unmarked) [Example 328, N-[[6-(5-cyclopropylisoxazole-4-carbonyl)-6-azaspiro[2.5]octan-2-yl]methyl]furo[2,3-c]pyridine-2-carboxamide], the IC50 came out at 83.4 nM.
Regarding `Cc1n[nH]c(C)c1C(=O)N1CCC2(CC1)CC2CNC(=O)c1cc2ccncc2o1` (centres unmarked) [Example 329, N-[[6-(3,5-dimethyl-1H-pyrazole-4-carbonyl)-6-azaspiro[2.5]octan-2-yl]methyl]furo[2,3-c]pyridine-2-carboxamide], the IC50 came to 55.1 nM.
On to `Cc1c(C(=O)N2CCC3(CC2)CC3CNC(=O)c2cc3ccncc3o2)cnn1C` (centres unmarked) [Example 330, N-[[6-(1,5-dmiethylpyrazole-4-carbonyl)-6-azaspiro[2.5]octan-2-yl]methyl]furo[2,3-c]pyridine-2-carboxamide], for which the IC50 turned out to be 159 nM.
Consider `Cc1ncoc1C(=O)N1CCC2(CC1)CC2CNC(=O)c1cc2ccncc2o1` (centres unmarked) [Example 331, N-[[6-(4-methyloxazole-5-carbonyl)-6-azaspiro[2.5]octan-2-yl]methyl]furo[2,3-c]pyridine-2-carboxamide], for which the IC50 is 7.04 nM.
As to `O=C(NCC1CC12CCN(C(=O)c1c[nH]nc1C1CC1)CC2)c1cc2ccncc2o1` (centres unmarked) [Example 332, N-[[6-(3-cyclopropyl-1H-pyrazole-4-carbonyl)-6-azaspiro[2.5]oetan-2-yl]methyl]furo[2,3-c]pyridine-2-carboxamide], the IC50 was determined as 33.8 nM.
As to `O=C(NCC1CC12CCN(C(=O)c1n[nH]c3c1CCC3)CC2)c1cc2ccncc2o1` (centres unmarked) [Example 333, N-[[6-(1,4,5,6-tetrahydrocyclopenta[c]pyrazole-3-carbonyl)-6-azaspiro[2.5]octan-2-yl]methyl]furo[2,3-c]pyridine-2-carboxamide], the IC50 is 6.81 nM.
Take `Cc1nc(C(=O)N2CCC3(CC2)CC3CNC(=O)c2cc3ccncc3o2)c(C)o1` (centres unmarked) [Example 334, N-[[6-(2,5-dimethyloxazole-4-carbonyl)-6-azaspiro[2.5]octan-2-yl]methyl]furo[2,3-c]pyridine-2-carboxamide]: the IC50 was 56.5 nM.
`Cc1nn(C)cc1C(=O)N1CCC2(CC1)CC2CNC(=O)c1cc2ccncc2o1` (centres unmarked) [Example 335, N-[[6-(1,3-dimethylpyrazole-4-carbonyl)-6-azaspiro[2.5]octan-2-yl]methyl]furo[2,3-c]pyridine-2-carboxamide]: the IC50 turned out to be 590 nM.
On to `O=C(NCC1CC12CCN(C(=O)c1cnco1)CC2)c1cc2ccncc2o1` (centres unmarked) [Example 336, N-[[6-(oxazole-5-carbonyl)-6-azaspiro[2.5]octan-2-yl]methyl]furo[2,3-c]pyridine-2-carboxamide], for which the IC50 worked out at 63.5 nM.
`O=C(NCC1CC12CCN(C(=O)c1cnoc1)CC2)c1cc2ccncc2o1` (centres unmarked) [Example 337, N-[[6-(isoxazole-4-carbonyl)-6-azaspiro[2.5]octan-2-yl]methyl]furo[2,3-c]pyridine-2-carboxamide]: the IC50 turned out to be 23.1 nM.
In the case of `O=C(NCC1CC12CCN(C(=O)c1ncc[nH]1)CC2)c1cc2ccncc2o1` (centres unmarked) [Example 338, N-[[6-(1H-imidazole-2-carbonyl)-6-azaspiro[2.5]octan-2-yl]methyl]furo[2,3-c]pyridine-2-carboxamide], the IC50 is 2000 nM.
As to `CN1CCN(c2ccc(C(=O)N3CCC4(CC3)CC4CNC(=O)c3cc4ccncc4o3)cc2)CC1` (centres unmarked) [Example 339, N-[[6-[4-(4-Methylpiperazin-1-yl)benzoyl]-6-azaspiro[2.5]octan-2-yl]methyl]furo[2,3-c]pyridine-2-carboxamide], the IC50 was determined as 1.9 nM.
Regarding `O=C(NCC1CC12CCN(C(=O)c1cnc3[nH]cnc3c1)CC2)c1cc2ccncc2o1` (centres unmarked) [Example 340, N-[[6-(3H-imidazo[4,5-b]pyridine-6-carbonyl)-6-azaspiro[2.5]octan-2-yl]methyl]furo[2,3-c]pyridine-2-carboxamide], the IC50 was 429 nM.
Regarding `Cc1ccc(C(=O)N2CCC3(CC2)CC3CNC(=O)c2cc3ccncc3o2)nc1` (centres unmarked) [Example 341, N-[[6-(5-methylpyridine-2-carbonyl)-6-azaspiro[2.5]octan-2-yl)methyl]furo[2,3-c]pyridine-2-carboxamide], the IC50 came to 717 nM.
On the same count and under the same terms, the figure for `CN1CCN(Cc2ccc(C(=O)N3CCC4(CC3)CC4CNC(=O)c3cc4cnccc4[nH]3)cc2)CC1` (centres unmarked) [Example 343, N-[[6-[4-[(4-methylpiperazin-1-yl)methyl]benzoyl]-6-azaspiro[2.5]octan-2-yl]methyl]-1H-pyrrolo[3,2-c]pyridine-2-carboxamide] is 42.5 nM; for `CN1CCN(Cc2cccc(C(=O)N3CCC4(CC3)CC4CNC(=O)c3cc4cnccc4[nH]3)c2)CC1` (centres unmarked) [Example 344, N-[[6-[3-[(4-methylpiperazin-1-yl)methyl]benzoyl]-6-azaspiro[2.5]octan-2-yl]methyl]-1H-pyrrolo[3,2-c]pyridine-2-carboxamide] it is 72 nM; for `CN(C)Cc1ccc(C(=O)N2CCC3(CC2)CC3CNC(=O)c2cc3cnccc3[nH]2)cc1` (centres unmarked) [Example 345, N-[[6-[4-[(dimethylamino)methyl]benzoyl]-6-azaspiro[2.5]octan-2-yl]methyl]-1H-pyrrolo[3,2-c]pyridine-2-carboxamide] it is 80.8 nM.
Regarding `CN1CCN(Cc2ccc(C(=O)N3CCC4(CC3)CC4CNC(=O)N3Cc4ccncc4C3)cc2)CC1` (centres unmarked) [Example 346, N-[[6-[4-[(4-methylpiperazin-1-yl)methyl]benzoyl]-6-azaspiro[2.5]octan-2-yl]methyl]-1,3-dihydropyrrolo[3,4-c]pyridine-2-carboxamide], the IC50 stood at 6.01 nM.
`CC(C)(CO)OC(=O)N1CCC2(CC1)CC2CNC(=O)N1Cc2ccncc2C1` (centres unmarked) [Example 351, (2-hydroxy-1,1-dimethyl-ethyl) 2-[(1,3-dihydropyrrolo[3,4-c]pyridine-2-carbonylamino)methyl]-6-azaspiro[2.5]octane-6-carboxylate]: the IC50 was 3.56 nM.
Consider `O=C(NCC1CC12CCN(C(=O)c1cc(C3CC3)n[nH]1)CC2)N1Cc2ccncc2C1` (centres unmarked) [Example 353, N-[[6-(3-cyclopropyl-1H-pyrazole-5-carbonyl)-6-azaspiro[2.5]octan-2-yl]methyl]-1,3-dihydropyrrolo[3,4-c]pyridine-2-carboxamide], for which the IC50 worked out at 7.55 nM.
On to `Cn1cc(-c2ccno2)c(C(=O)N2CCC3(CC2)CC3CNC(=O)N2Cc3ccncc3C2)n1` (centres unmarked) [Example 354, N-[[6-(4-isoxazol-5-yl-1-methyl-pyrazole-3-carbonyl)-6-azaspiro[2.5]octan-2-yl]methyl]-1,3-dihydropyrrolo[3,4-c]pyridine-2-carboxamide], for which the IC50 worked out at 7.07 nM.
Turning to `CN1CCC(C)(CC(=O)N2CCC3(CC2)CC3CNC(=O)N2Cc3ccncc3C2)CC1` (centres unmarked) [Example 356, N-[[6-[2-(1,4-dimethyl-4-piperidyl)acetyl]-6-azaspiro[2.5]octan-2-yl]methyl]-1,3-dihydropyrrolo[3,4-c]pyridine-2-carboxamide], the IC50 amounted to 7.62 nM.
The same measure, in the same setting: the result for `N#Cc1ccccc1CC(=O)N1CCC2(CC1)CC2CNC(=O)N1Cc2ccncc2C1` (centres unmarked) [Example 357, N-[[6-[2-(2-cyanophenyl)acetyl]-6-azaspiro[2.5]octan-2-yl]methyl]-1,3-dihydropyrrolo[3,4-c]pyridine-2-carboxamide] reads 10.6 nM; that for `CC(=O)NCC(C)(C)OC(=O)N1CCC2(CC1)CC2CNC(=O)N1Cc2ccncc2C1` (centres unmarked) [Example 358, (2-acetamido-1,1-dimethyl-ethyl)2-[(1,3-dihydropyrrolo[3,4-c]pyridine-2-carbonylamino)methyl]-6-azaspiro[2.5]octane-6-carboxylate], 9.19 nM.
With `C=C/N=C\C1=CCN(C(=O)NCC2CC23CCN(C(=O)CCC(C)(C)O)CC3)C1` (centres unmarked) [Example 360, N-[[6-(4-hydroxy-4-methyl-pentanoyl)-6-azaspiro[2.5]octan-2-yl]methyl]-1,3-dihydropyrroIo[3,4-c]pyridine-2-carboxamide], the IC50 amounted to 50.9 nM.
As for `CC1(NC(=O)N2CCC3(CC2)CC3CNC(=O)N2Cc3ccncc3C2)COC1` (centres unmarked) [Example 361, N-[[6-[(3-methyloxetan-3-yl)carbamoyl]-6-azaspiro[2.5]octan-2-yl]methyl]-1,3-dihydropyrrolo[3,4-c]pyridine-2-carboxamide], the IC50 worked out at 56.1 nM.
For `CN1CCN(c2ccc(C(=O)N3CCC4(CC3)CC4CNC(=O)N3Cc4ccncc4C3)cc2)CC1` (centres unmarked) [Example 362, N-[[6-[4-(4-methylpiperazin-1-yl)benzoyl]-6-azaspiro[2.5]octan-2-yl]methyl]-1,3-dihydropyrrolo[3,4-c]pyridine-2-carboxamide], the IC50 came out at 1.9 nM.
On the same count and under the same terms, the result for `CN1CCN(c2ccc(C(=O)N3CCC4(CC3)CC4CNC(=O)c3cc4cnccc4[nH]3)cc2)CC1` (centres unmarked) [Example 363, N-[[6-[4-(4-methylpiperazin-1-yl)benzoyl]-6-azaspiro[2.5]octan-2-yl]methyl]-1H-pyrrolo[3,2-c]pyridine-2-carboxamide] reads 11.4 nM.
For `O=C(NCC1CC12CCN(C(=O)c1cc(C3CC3)n[nH]1)CC2)c1cc2cnccc2[nH]1` (centres unmarked) [Example 368, N-[[6-(3-cyclopropyl-1H-pyrazole-5-carbonyl)-6-azaspiro[2.5]octan-2-yl]methyl]-1H-pyrrolo[3,2-c]pyridine-2-carboxamide], the IC50 is 991 nM.
As to `Cn1cc(-c2ccno2)c(C(=O)N2CCC3(CC2)CC3CNC(=O)c2cc3cnccc3[nH]2)n1` (centres unmarked) [Example 369, N-[[6-(4-isoxazol-5-yl-1-methyl-pyrazole-3-carbonyl)-6-azaspiro[2.5]octan-2-yl]methyl]-1H-pyrrolo[3,2-c]pyridine-2-carboxamide], the IC50 came to 93.3 nM.
